We go through 5 compounds from US8399399B2, “3- and 4-methyl dodecenal and their use in fragrance and flavour compositions” (Givaudan SA, priority 2005, dated 2013).

The nature of this experiment: Determination of GC-odour threshold concentration (gas chromatograph with sniff port, panel of trained evaluators). As to conditions: for odour threshold concentration, geometric mean: GC sniff port, absolute amount of compound delivered at the sniff port, group of 5 panelists, identical conditions; for odour threshold of the (Z)-isomer compared to its corresponding (E)-isomer (times higher): pure (Z)-isomer versus pure (E)-isomer. The protocol: The odour threshold concentration is defined as the lowest concentration of the vapour of an odourant material in the air which can be detected by smell and can be measured by standard methods known in the art.
According to standard procedures known to the person skilled in the art, threshold concentrations for volatile perfumery compounds are determined on a gas chromatograph equipped with a sniff port by a panel of trained evaluators. The lowest concentration smelled by each panellist is recorded as the individual threshold concentration expressed in ng (absolute amount of compound delivered at the sniff port).
Under identical conditions the odour threshold concentration for (E)-2-methyl-4-dodecenal (prior art), (E)-3-methyl-4-dodecenal and (E)-4-methyl-4-dodecenal was measured and compared by a group of 5 panelists.

`CCCCCCC/C=C/CC(C)C=O` (centres unmarked) [(E)-2-methyl-4-dodecenal, reference compound]: the “odour threshold concentration, geometric mean” value (“odour threshold concentration” for short) stood at 3.2 ng.

With `CCCCCCC/C=C/C(C)CC=O` (centres unmarked) [(E)-3-methyl-4-dodecenal], the “odour threshold concentration” value came to 1.0 ng.

As for `CCCCCCC/C=C(\C)CCC=O` [(E)-4-methyl-4-dodecenal, (E)-4-Methyl-4-dodecenal], the “odour threshold concentration” value was found to be 0.05 ng.

In the case of `CCCCCCC/C=C\C(C)CC=O` (centres unmarked) [(Z)-3-methyl-4-dodecenal], the “odour threshold of the (Z)-isomer compared to its corresponding (E)-isomer (times higher)” value was 5 times.

Consider `CCCCCCC/C=C(/C)CCC=O` [(Z)-4-methyl-4-dodecenal, (Z)-4-Methyl-4-dodecenal], for which the “odour threshold of the (Z)-isomer compared to its corresponding (E)-isomer (times higher)” value worked out at 20 times.
